System: MV-4-11 cells
Assay: Gene expression microarray analysis (Affymetrix PrimeView) and GSEA
Format: cell-based, human
Parameters: RFU PODN (11730768_x_at) / Fold change /veh PODN (11730768_x_at) / RFU LINC00158 (11744669_a_at) / Fold change /veh LINC00158 (11744669_a_at) / RFU DUSP10 (11751237_a_at) / Fold change /veh DUSP10 (11751237_a_at) / RFU ID3 (11757404_x_at) / Fold change /veh ID3 (11757404_x_at) / RFU PLEKHG5 (11737974_s_at) / Fold change /veh PLEKHG5 (11737974_s_at) / RFU LRRC4B (11730491_at) / Fold change /veh LRRC4B (11730491_at) / RFU GIMAP4 (11747438_a_at) / Fold change /veh GIMAP4 (11747438_a_at) / RFU KRT8 (11758183_x_at) / Fold change /veh KRT8 (11758183_x_at) / RFU CNN1 (11734310_a_at) / Fold change /veh CNN1 (11734310_a_at) / RFU VPS37D (11726825_at) / Fold change /veh VPS37D (11726825_at) / RFU C10orf10 (11716522_x_at) / Fold change /veh C10orf10 (11716522_x_at) / RFU KIR2DL2 /// KIR2DL4 /// KIR2DL5A /// KIR2DL5B /// KIR2DS1 /// KIR2DS2 /// KIR2DS3 /// KIR2DS4 /// KIR3DL3 /// KIR3DL3 /// KIR3DS1 (11738374_at) / Fold change /veh KIR2DL2 /// KIR2DL4 /// KIR2DL5A /// KIR2DL5B /// KIR2DS1 /// KIR2DS2 /// KIR2DS3 /// KIR2DS4 /// KIR3DL3 /// KIR3DL3 /// KIR3DS1 (11738374_at) / RFU C1QL1 (11718748_at) / Fold change /veh C1QL1 (11718748_at) / RFU TMPRSS4 (11747572_a_at) / Fold change /veh TMPRSS4 (11747572_a_at) / RFU HAMP (11756126_x_at) / Fold change /veh HAMP (11756126_x_at) / RFU RNFT2 (11725882_a_at) / Fold change /veh RNFT2 (11725882_a_at) / RFU NR4A2 (11747474_a_at) / Fold change /veh NR4A2 (11747474_a_at) / RFU ABCC12 (11746883_a_at) / Fold change /veh ABCC12 (11746883_a_at) / RFU TMEM136 (11760407_x_at) / Fold change /veh TMEM136 (11760407_x_at) / RFU CLDN22 /// WWC2 (11732394_at) / Fold change /veh CLDN22 /// WWC2 (11732394_at) / RFU HLA-DPB1 (11760878_x_at) / Fold change /veh HLA-DPB1 (11760878_x_at) / RFU SPINT1 (11716480_a_at) / Fold change /veh SPINT1 (11716480_a_at) / RFU GAP43 (11754022_s_at) / Fold change /veh GAP43 (11754022_s_at) / RFU A4GNT (11735810_at) / Fold change /veh A4GNT (11735810_at) / RFU PRB3 (11715151_x_at) / Fold change /veh PRB3 (11715151_x_at) / RFU TUBB4B (11761932_at) / Fold change /veh TUBB4B (11761932_at) / RFU CAPN14 (11732068_a_at) / Fold change /veh CAPN14 (11732068_a_at) / RFU TMCC2 (11721928_a_at) / Fold change /veh TMCC2 (11721928_a_at) / RFU IRGQ (11745062_a_at) / Fold change /veh IRGQ (11745062_a_at) / RFU FAM174B (11720279_a_at) / Fold change /veh FAM174B (11720279_a_at) / RFU TMPRSS4 (11748680_a_at) / Fold change /veh TMPRSS4 (11748680_a_at) / RFU FAM212B (11763350_a_at) / Fold change /veh FAM212B (11763350_a_at) / RFU PLEKHG5 (11743358_a_at) / Fold change /veh PLEKHG5 (11743358_a_at) / RFU ZSCAN30 (11745921_a_at) / Fold change /veh ZSCAN30 (11745921_a_at) / RFU CMKLR1 (11741424_a_at) / Fold change /veh CMKLR1 (11741424_a_at) / RFU LOC101060620 /// MAPK8IP1 (11723275_at) / Fold change /veh LOC101060620 /// MAPK8IP1 (11723275_at) / RFU SPTSSB (11747773_x_at) / Fold change /veh SPTSSB (11747773_x_at) / RFU PRSS12 (11739890_at) / Fold change /veh PRSS12 (11739890_at) / RFU BIN1 (11741810_x_at) / Fold change /veh BIN1 (11741810_x_at) / RFU WNT11 (11732464_a_at) / Fold change /veh WNT11 (11732464_a_at) / RFU C10orf10 (11716521_a_at) / Fold change /veh C10orf10 (11716521_a_at) / RFU C5orf56 (11738089_at) / Fold change /veh C5orf56 (11738089_at) / RFU CYB561 (11721691_x_at) / Fold change /veh CYB561 (11721691_x_at) / RFU ANKRD19P (11752326_a_at) / Fold change /veh ANKRD19P (11752326_a_at) / RFU OR2T12 /// OR2T33 /// OR2T8 (11738714_s_at) / Fold change /veh OR2T12 /// OR2T33 /// OR2T8 (11738714_s_at) / RFU VCAN (11748164_a_at) / Fold change /veh VCAN (11748164_a_at) / RFU JSRP1 (11732532_at) / Fold change /veh JSRP1 (11732532_at) / RFU KRTAP10-11 (11738290_x_at) / Fold change /veh KRTAP10-11 (11738290_x_at) / RFU MYO3A (11730013_a_at) / Fold change /veh MYO3A (11730013_a_at) / RFU EBF3 (11725865_a_at) / Fold change /veh EBF3 (11725865_a_at) / RFU CAMK2N1 (11719241_x_at) / Fold change /veh CAMK2N1 (11719241_x_at) / RFU C5orf56 (11738088_a_at) / Fold change /veh C5orf56 (11738088_a_at) / RFU OLFML3 (11715873_a_at) / Fold change /veh OLFML3 (11715873_a_at) / RFU LOC100653217 /// NTM (11731650_a_at) / Fold change /veh LOC100653217 /// NTM (11731650_a_at) / RFU MAPK11 (11762145_a_at) / Fold change /veh MAPK11 (11762145_a_at) / RFU FIZ1 (11724087_x_at) / Fold change /veh FIZ1 (11724087_x_at) / RFU OASL (11726364_x_at) / Fold change /veh OASL (11726364_x_at) / RFU SOX15 (11748057_x_at) / Fold change /veh SOX15 (11748057_x_at) / RFU CD79A (11719716_a_at) / Fold change /veh CD79A (11719716_a_at) / RFU HIST1H1D (11736915_at) / Fold change /veh HIST1H1D (11736915_at) / RFU CASKIN2 (11723855_a_at) / Fold change /veh CASKIN2 (11723855_a_at) / RFU LOC730098 (11760151_x_at) / Fold change /veh LOC730098 (11760151_x_at) / RFU OR4N2 (11742367_at) / Fold change /veh OR4N2 (11742367_at) / RFU PRRT2 (11749266_a_at) / Fold change /veh PRRT2 (11749266_a_at) / RFU SNX32 (11753110_a_at) / Fold change /veh SNX32 (11753110_a_at) / RFU CDHR5 (11726645_a_at) / Fold change /veh CDHR5 (11726645_a_at) / RFU RCAN1 (11760418_a_at) / Fold change /veh RCAN1 (11760418_a_at) / RFU FAM167A (11723789_a_at) / Fold change /veh FAM167A (11723789_a_at) / RFU FAM26E (11764081_at) / Fold change /veh FAM26E (11764081_at) / RFU ISYNA1 (11749810_s_at) / Fold change /veh ISYNA1 (11749810_s_at) / RFU ACY1 (11761880_at) / Fold change /veh ACY1 (11761880_at) / RFU 11764098_at / Fold change /veh 11764098_at / RFU SAMD14 (11745864_x_at) / Fold change /veh SAMD14 (11745864_x_at) / RFU NPB (11741838_a_at) / Fold change /veh NPB (11741838_a_at) / RFU TMPRSS6 (11731388_a_at) / Fold change /veh TMPRSS6 (11731388_a_at) / RFU KRTAP10-2 (11738614_at) / Fold change /veh KRTAP10-2 (11738614_at) / RFU ARHGAP8 /// PRR5-ARHGAP8 (11727945_x_at) / Fold change /veh ARHGAP8 /// PRR5-ARHGAP8 (11727945_x_at) / RFU KRTAP5-7 /// NADSYN1 (11734609_at) / Fold change /veh KRTAP5-7 /// NADSYN1 (11734609_at) / RFU RASL12 (11751679_a_at) / Fold change /veh RASL12 (11751679_a_at) / RFU CDKN2B (11736163_a_at) / Fold change /veh CDKN2B (11736163_a_at) / RFU PRF1 (11729649_at) / Fold change /veh PRF1 (11729649_at) / RFU, ZNF638 /// ZNF638-IT1 / Fold change vs veh, ZNF638 /// ZNF638-IT1 / RFU, PANK3 / Fold change vs veh, PANK3 / RFU, SH3YL1 / Fold change vs veh, SH3YL1 / RFU, ZEB2 / Fold change vs veh, ZEB2 / RFU, NRIP1 / Fold change vs veh, NRIP1 / RFU, PTTG1IP / Fold change vs veh, PTTG1IP / RFU, CAPN2 / Fold change vs veh, CAPN2 / RFU, MED14 / Fold change vs veh, MED14 / RFU, SNORA58 / Fold change vs veh, SNORA58 / RFU, C1orf63 / Fold change vs veh, C1orf63 / RFU, LRRFIP1 / Fold change vs veh, LRRFIP1 / RFU, NDUFAF7 / Fold change vs veh, NDUFAF7 / RFU, SLC12A2 / Fold change vs veh, SLC12A2 / RFU, IBTK / Fold change vs veh, IBTK / RFU, ESF1 / Fold change vs veh, ESF1 / Fold change vs veh, TMEM50B / RFU, TAOK1 / Fold change vs veh, TAOK1 / RFU, ACBD3 / Fold change vs veh, ACBD3 / RFU, TMA16 / Fold change vs veh, TMA16 / RFU, RWDD3 / Fold change vs veh, RWDD3 / RFU, BCAT1 / Fold change vs veh, BCAT1 / RFU, EDEM3 / Fold change vs veh, EDEM3 / RFU, TMEM33 / Fold change vs veh, TMEM33 / RFU, WDR75 / Fold change vs veh, WDR75 / RFU, AHCTF1 / Fold change vs veh, AHCTF1 / RFU, TFRC / Fold change vs veh, TFRC / RFU, ZDHHC17 / Fold change vs veh, ZDHHC17 / RFU, NOM1 / Fold change vs veh, NOM1 / RFU, ARL8B / Fold change vs veh, ARL8B / RFU, ZBTB11 / Fold change vs veh, ZBTB11 / RFU, TAMM41 / Fold change vs veh, TAMM41 / RFU, KIAA1704 /// LOC100996395 / Fold change vs veh, KIAA1704 /// LOC100996395 / RFU, ING1 / Fold change vs veh, ING1 / RFU, TRMT61B / Fold change vs veh, TRMT61B / RFU, FUBP3 / Fold change vs veh, FUBP3 / RFU, TP53 / Fold change vs veh, TP53 / RFU, TNKS2 / Fold change vs veh, TNKS2 / RFU, ZFP14 / Fold change vs veh, ZFP14 / RFU, ACTR2 / Fold change vs veh, ACTR2 / RFU, PPP3R1 / Fold change vs veh, PPP3R1 / RFU, PIK3R1 / Fold change vs veh, PIK3R1 / RFU, HNRNPA1 / Fold change vs veh, HNRNPA1 / RFU, RNF170 / Fold change vs veh, RNF170 / RFU, ZNF28 / Fold change vs veh, ZNF28 / RFU, RNGTT / Fold change vs veh, RNGTT / RFU, OGT / Fold change vs veh, OGT / RFU, BRD1 / Fold change vs veh, BRD1 / RFU, MARS / Fold change vs veh, MARS / RFU, ZNF655 / Fold change vs veh, ZNF655 / RFU, FAHD1 / Fold change vs veh, FAHD1 / RFU, BDP1 / Fold change vs veh, BDP1 / RFU, LRRCC1 / Fold change vs veh, LRRCC1 / RFU, ARID1A / Fold change vs veh, ARID1A / RFU, ZNF146 / Fold change vs veh, ZNF146 / RFU, ZNF330 / Fold change vs veh, ZNF330 / RFU, GPN3 / Fold change vs veh, GPN3 / RFU, C9orf123 / Fold change vs veh, C9orf123 / RFU, N4BP2L2 / Fold change vs veh, N4BP2L2 / RFU, ARFIP1 / Fold change vs veh, ARFIP1 / RFU, FAM179B / Fold change vs veh, FAM179B / RFU, BCL10 / Fold change vs veh, BCL10 / RFU, UHRF1BP1L / Fold change vs veh, UHRF1BP1L / RFU, BET1 / Fold change vs veh, BET1 / RFU, CNOT2 / Fold change vs veh, CNOT2 / RFU, ZNF268 / Fold change vs veh, ZNF268 / Fold change vs veh, ZNF507 / RFU, DGCR2 / Fold change vs veh, DGCR2 / RFU, WDSUB1 / Fold change vs veh, WDSUB1 / Fold change vs veh, HSP90B1 /// MIR3652 / RFU, ADSS / Fold change vs veh, ADSS / RFU, GK / Fold change vs veh, GK / RFU, ZNF148 / Fold change vs veh, ZNF148 / RFU, TAF9 / Fold change vs veh, TAF9 / RFU, SLC1A5 / Fold change vs veh, SLC1A5 / RFU, SLMO2 / Fold change vs veh, SLMO2 / RFU, ABCC4 / Fold change vs veh, ABCC4 / RFU, LOC101060439 /// RAP1B / Fold change vs veh, LOC101060439 /// RAP1B / RFU, RFX7 / Fold change vs veh, RFX7 / RFU, GTPBP10 / Fold change vs veh, GTPBP10 / RFU, CNEP1R1 / Fold change vs veh, CNEP1R1 / RFU, BIVM-ERCC5 /// ERCC5 / Fold change vs veh, BIVM-ERCC5 /// ERCC5 / RFU, ILF3 / Fold change vs veh, ILF3 / RFU 11762660_at / Fold change /veh 11762660_at / RFU VCAN (11757783_s_at) / Fold change /veh VCAN (11757783_s_at) / RFU DDX43 (11728927_at) / Fold change /veh DDX43 (11728927_at) / RFU KRT8 (11758188_x_at) / Fold change /veh KRT8 (11758188_x_at) / RFU NKD1 (11759106_at) / Fold change /veh NKD1 (11759106_at) / RFU SRD5A1 (11742802_a_at) / Fold change /veh SRD5A1 (11742802_a_at) / RFU TPSAB1 /// TPSB2 (11721975_s_at) / Fold change /veh TPSAB1 /// TPSB2 (11721975_s_at) / RFU GSTM3 (11746129_a_at) / Fold change /veh GSTM3 (11746129_a_at) / RFU IL23R (11737362_x_at) / Fold change /veh IL23R (11737362_x_at) / RFU TMEM51 (11727254_a_at) / Fold change /veh TMEM51 (11727254_a_at) / RFU PIWIL2 (11732686_x_at) / Fold change /veh PIWIL2 (11732686_x_at) / RFU ORM1 (11744905_x_at) / Fold change /veh ORM1 (11744905_x_at) / RFU CCDC152 (11743942_at) / Fold change /veh CCDC152 (11743942_at) / RFU ECM1 (11717891_a_at) / Fold change /veh ECM1 (11717891_a_at) / RFU IL23R (11748794_a_at) / Fold change /veh IL23R (11748794_a_at) / RFU TNFAIP8L3 (11732012_x_at) / Fold change /veh TNFAIP8L3 (11732012_x_at) / RFU MBOAT4 (11741988_at) / Fold change /veh MBOAT4 (11741988_at) / RFU 11764193_at / Fold change /veh 11764193_at / RFU TMEM53 (11763286_at) / Fold change /veh TMEM53 (11763286_at) / RFU MAGEB2 (11727129_at) / Fold change /veh MAGEB2 (11727129_at) / RFU TMEM200A (11744735_a_at) / Fold change /veh TMEM200A (11744735_a_at) / RFU CCDC152 (11751479_a_at) / Fold change /veh CCDC152 (11751479_a_at) / RFU FAM211A (11726209_a_at) / Fold change /veh FAM211A (11726209_a_at) / RFU RGS16 (11746705_a_at) / Fold change /veh RGS16 (11746705_a_at) / RFU VCAN (11755009_s_at) / Fold change /veh VCAN (11755009_s_at) / RFU RHOB (11743442_s_at) / Fold change /veh RHOB (11743442_s_at) / RFU RGS16 (11720943_a_at) / Fold change /veh RGS16 (11720943_a_at) / RFU RGS16 (11720944_at) / Fold change /veh RGS16 (11720944_at) / RFU, VPS4B / Fold change vs veh, VPS4B / RFU, CREB1 / Fold change vs veh, CREB1 / RFU, DNAJC13 / Fold change vs veh, DNAJC13 / RFU, GNAQ / Fold change vs veh, GNAQ / RFU, CDK5R1 / Fold change vs veh, CDK5R1 / RFU, ZRANB3 / Fold change vs veh, ZRANB3 / RFU, CUL4A / Fold change vs veh, CUL4A / RFU, CCNY / Fold change vs veh, CCNY / RFU, UFL1 / Fold change vs veh, UFL1 / RFU, COG3 / Fold change vs veh, COG3 / RFU, DIAPH2 / Fold change vs veh, DIAPH2 / RFU, SKA2 / Fold change vs veh, SKA2 / RFU, AFF3 / Fold change vs veh, AFF3 / RFU, LMF1 / Fold change vs veh, LMF1 / RFU, IPO11 / Fold change vs veh, IPO11 / RFU, DFFB / Fold change vs veh, DFFB / RFU, FOXP1 / Fold change vs veh, FOXP1 / RFU, CARD8 / Fold change vs veh, CARD8 / RFU, STRN3 / Fold change vs veh, STRN3 / RFU, ADK / Fold change vs veh, ADK / RFU, RASSF2 / Fold change vs veh, RASSF2 / RFU, WIPF1 / Fold change vs veh, WIPF1 / RFU, LARP1B / Fold change vs veh, LARP1B / RFU, RASA1 / Fold change vs veh, RASA1 / RFU, RB1 / Fold change vs veh, RB1 / RFU, PPFIA1 / Fold change vs veh, PPFIA1 / RFU, MAT2A / Fold change vs veh, MAT2A / RFU, CCT5 / Fold change vs veh, CCT5 / RFU, WDR92 / Fold change vs veh, WDR92 / RFU, CUX1 / Fold change vs veh, CUX1 / RFU, TTC7A / Fold change vs veh, TTC7A / RFU, TMEM135 / Fold change vs veh, TMEM135 / RFU, DEPTOR / Fold change vs veh, DEPTOR / RFU, CPM / Fold change vs veh, CPM / RFU, DNAJB6 / Fold change vs veh, DNAJB6 / RFU, CACNA2D3 / Fold change vs veh, CACNA2D3 / RFU, DTX4 / Fold change vs veh, DTX4 / RFU, TFCP2 / Fold change vs veh, TFCP2 / RFU, GMCL1 /// GMCL1P1 / Fold change vs veh, GMCL1 /// GMCL1P1 / RFU, AEBP2 / Fold change vs veh, AEBP2 / RFU, SNHG1 /// SNORD22 /// SNORD25 /// SNORD26 /// SNORD27 /// SNORD28 /// SNORD29 /// SNORD31 / Fold change vs veh, SNHG1 /// SNORD22 /// SNORD25 /// SNORD26 /// SNORD27 /// SNORD28 /// SNORD29 /// SNORD31 / Fold change (Aza/veh), C12orf56 (ProbeSet 11735607_a_at) / Fold change (ACY-1035/veh), C12orf56 (ProbeSet 11735607_a_at) / Fold change (Aza/veh), FGFR1OP (ProbeSet 11751329_s_at) / Fold change (ACY-1035/veh), FGFR1OP (ProbeSet 11751329_s_at) / Fold change (Aza/veh), VPS36 (ProbeSet 11739960_a_at) / Fold change (ACY-1035/veh), VPS36 (ProbeSet 11739960_a_at) / RFU SYPL1 (11715823_x_at) / Fold change /veh SYPL1 (11715823_x_at) / RFU IGFBP7 (11715501_s_at) / Fold change /veh IGFBP7 (11715501_s_at) / RFU REEP3 (11722064_at) / Fold change /veh REEP3 (11722064_at) / RFU IGLL1 (11728026_x_at) / Fold change /veh IGLL1 (11728026_x_at): dose or concentration left out as unconfirmed
Conditions: MV-4-11 cells, 48 hours

Compound: Nc1ccc(-c2cccs2)cc1NC(=O)c1ccc2c(c1)cc(C1CC1)n2CCN1CCOCC1 [ACY-1035]
- RFU VCAN (11755009_s_at): 8.96 RFU
